Assay results taken from patent US20110092524A1, “Agent for Enhancing Corneal Epithelial Barrier Function” (SANTEN PHARMACEUTICAL CO., LTD., priority 2008, published 2011).
Read-outs that look alike come from different tables or passages of the source.

How the values were obtained:
[1] = system: SV40-immortalized human corneal epithelial cells (HCE-T); assay: Enhancing effect of PPARγ agonist on barrier function (membrane electrical resistance of corneal epithelial cell layer); format: cell-based; conditions: for Membrane electrical resistance: five days after seeding, average of four experiments, base culture 296.0
Protocol: The PPARγ agonist was evaluated with respect to the enhancing effect on the barrier function of a corneal epithelial cell. For the corneal epithelial cell, an SV40-immortalized human corneal epithelial cell line was used, utilizing a membrane electrical resistance as an index of the barrier function. When the bather function of the corneal epithelial cell is enhanced, the membrane electrical resistance increases, while the bather function is reduced, the membrane electrical resistance decreases.
From RIKEN BioResource Center, SV40-immortalized human corneal epithelial cells (HCE-T) were obtained. […] As the culture medium, a DMEM/Ham's F12 (Nacalai Tesque, Inc.) containing 15% fetal bovine serum (ICN) and 40 μg/mL of gentamicin (Gibco) was used. […] The concentration mentioned above was attained by dissolving each sample in DMSO and diluting 1,000-fold with the culture medium. In addition, a culture medium containing DMSO alone was used as a base culture medium.
(§1) Five days after the seeding, an electrical resistance of an epithelial cell layer was measured using a membrane electrical resistance measurement system (World Precision Instruments). A well containing the base medium alone with no corneal epithelial cell seeded was measured as a blank, and the value was subtracted from the electrical resistance of the epithelial cell layer. The resultant value was multiplied by an area of the cell culture (0.33 cm^2), to thereby obtain an electrical resistance (Ω·cm^2) per unit area.

[2] = system: SV40-immortalized human corneal epithelial cells (HCE-T); assay: Influence of PPARγ antagonist on barrier function enhancing effect of PPARγ agonist (membrane electrical resistance); format: cell-based; conditions: for Membrane electrical resistance: five days after seeding, average of four experiments, base culture 434.1
Protocol: An influence of the PPARγ antagonist was evaluated with respect to the barrier function enhancing effect of the PPARγ agonist, and it was examined whether or not the enhancing effect on the barrier function is based on the activity of the PPARγ agonist.
From RIKEN BioResource Center, SV40-immortalized human corneal epithelial cells (HCE-T) were obtained. On a culture insert of 24-well Transwell Clear (Corning Incorporated) were seeded 6.4×10^4 cells of HCE-T, and incubated at 37° C. in 5% CO2. As the culture medium, a DMEM/Ham's F12 (Nacalai Tesque, Inc.) containing 15% fetal bovine serum (ICN) and 40 μg/mL of gentamicin (Gibco) was used. The culture medium was removed after 9 hours, 2 days, 3 days and 4 days, and replaced with a culture medium containing the PPARγ agonist and the PPARγ antagonist to thereby obtain samples. As the PPARγ agonist, rivoglitazone [0.1 μM] was used, and as the PPARγ antagonist, 2-chloro-5-nitrobenzanilide (GW-9662) [0.03 μM, 0.1 μM] was used. The concentrations mentioned above were attained by dissolving each sample in DMSO and diluting 1,000-fold with the culture medium. In addition, a culture containing DMSO alone was used as a base culture medium.
as §1, with “obtaining” for “obtain”

C/C(=C/C(=O)c1ccccc1)N[C@@H](Cc1ccc(OCCc2nc(-c3ccccc3)oc2C)cc1)C(=O)O [GW-544, N-[1-methyl-3-oxo-3-phenyl-1(Z)-propenyl]-O-[2-(5-methyl-2-phenyloxazol-4-yl)ethyl]-L-tyrosine]
barrier function enhancing effect (in words) [1]: excellent barrier function enhancing effect

O=C(Nc1ccccc1)c1cc([N+](=O)[O-])ccc1Cl [GW-9662, 2-chloro-5-nitrobenzanilide]
antagonism of the barrier function enhanced by rivoglitazone (in words) ([2]; GW-9662 0.03 μM and 0.1 μM with rivoglitazone 0.1 μM): concentration-dependently reduced | antagonism of the barrier function enhanced by rivoglitazone (in words) ([2]; GW-9662 at 0.1 μM with rivoglitazone 0.1 μM): completely antagonized

CN(CCOc1ccc(CC2SC(=O)NC2=O)cc1)c1ccccn1 (centres unmarked) [Rosiglitazone, 5-[p-[2-(methyl-2-pyridylamino)ethoxy]benzyl]-2,4-thiazolidinedione]
Membrane electrical resistance ([1]; sample 10 μM, HCE-T): 343.2 Ω · cm^2

COc1ccc(OC(=O)N(CC(=O)O)Cc2ccc(OCCc3nc(-c4ccccc4)oc3C)cc2)cc1 [BMS-298585, N-[(4-methoxyphenoxy)carbonyl]-N-[[4-[2-(5-methyl-2-phenyl-4-oxazolyl)ethoxy]phenyl]methyl]glycine]
barrier function enhancing effect (in words) [1]: excellent barrier function enhancing effect

CCc1ccc(CCOc2ccc(CC3SC(=O)NC3=O)cc2)nc1 (centres unmarked) [Pioglitazone, 5-[[4-[2-(5-ethyl-2-pyridinyl)ethoxy]phenyl]methyl]-2,4-thiazolidinedione]
Membrane electrical resistance ([1]; sample 10 μM, HCE-T): 350.3 Ω · cm^2

COc1ccc2nc(COc3ccc(CC4SC(=O)NC4=O)cc3)n(C)c2c1 (centres unmarked) [Rivoglitazone, 5-[4-(6-methoxy-1-methyl-1H-benzimidazol-2-ylmethoxy)benzyl]thiazolidine-2,4-dione]
Membrane electrical resistance ([2]; rivoglitazone 0.1 μM alone): 538.8 Ω · cm^2 | Membrane electrical resistance ([2]; rivoglitazone 0.1 μM and GW-9662 0.03 μM): 473.5 Ω · cm^2 | Membrane electrical resistance ([2]; rivoglitazone 0.1 μM and GW-9662 0.1 μM): 429.3 Ω · cm^2 | barrier function enhancing effect (in words) ([1]; sample 10 μM, HCE-T, compared with base culture medium): extremely strong barrier function enhancing effect | Membrane electrical resistance ([1]; sample 10 μM, HCE-T): 615.9 Ω · cm^2
